In experiment [1] the test system is 786-O renal cell carcinoma cells. Briefly: qRT-PCR, Type 1 Interferon pathway gene expression in 786-O cells. The format is cell-based, Human. Conditions: 2 μM, 24 hr. The procedure:
(§1) 786-O cells were grown in RPMI-1640 medium containing 10% fetal bovine serum. Cells were then incubated for 2 days at 37 degrees Celsius, 5% CO2, and 95% humidity. 786-O cells were incubated with 2 μM of compound 1 for 24 hr. Cells were washed with PBS and RNA was isolated using the PureLink RNA kit (#12183018A, Thermo Fisher Scientific) according to the manufacturer's protocol. Genomic DNA was removed using DNA-binding columns (RNeasy plus kit, #74134, Qiagen) and/or DNase treatment (#12185010, Thermo Fisher Scientific). RNA was quantified using NanoDrop (Thermo Fisher Scientific) and 50 ng/μL RNA was used for cDNA synthesis with SuperScript IV VILO Master Mix (#11756050, Thermo Fisher Scientific). Quantitative RT-PCR (qRT-PCR) was run with diluted cDNA (1:25 or 1:12.5), PowerUp SYBR Green Master Mix (#A25741, Thermo Fisher Scientific), and 200 nM primers (see below) on a CFX Connect RT-PCR system (BioRad). Data was analyzed using the ΔΔCT method. Results are mean±SEM of three independent experiments.
On the technique in general: Quantitative PCR measures a nucleic acid by following its amplification.

Experiment [2] deals with A-498 renal cell carcinoma cells. Briefly: Western blot, STING pathway proteins with siRNA knockdown, A-498 cells. The format is cell-based. Conditions: 24 h; for CGAS level / STING level / p-IRF3 level / p-STAT1 level / p-TKB1 level / p-IRF3 and p-STAT1 levels with siRNA knockdown of CGAS / p-TKB1 level with siRNA knockdown of CGAS / p-IRF3 and p-STAT1 levels with siRNA knockdown of STING / p-TBK1 level with siRNA knockdown of STING: 2 μM; for CGAS level / STING level / p-IRF3 level / p-STAT1 level / p-TKB1 level: vs DMSO alone; for p-IRF3 and p-STAT1 levels with siRNA knockdown of CGAS / p-TKB1 level with siRNA knockdown of CGAS: siCGAS; for p-IRF3 and p-STAT1 levels with siRNA knockdown of CGAS / p-TKB1 level with siRNA knockdown of CGAS / p-IRF3 and p-STAT1 levels with siRNA knockdown of STING / p-TBK1 level with siRNA knockdown of STING: vs compound alone; for p-IRF3 and p-STAT1 levels with siRNA knockdown of STING / p-TBK1 level with siRNA knockdown of STING: siSTING; for STING level with siRNA knockdown of TBK1 / CGAS level with siRNA knockdown of TBK1: siTBK1, 2 μM; for CGAS level with siRNA knockdown of TBK1: vs DMSO. The procedure: A-498 cells were transfected with scrambled siRNA control (siSCR) or siRNA targeting TBK1 (siTBK1), STING (siSTING) or CGAS (siCGAS). After 48 h cells were treated with DMSO or 2 μM of VPS34 inhibitor (Compound 1 or Compound 2) for 24 h. A-498 cells were washed in PBS and lysed in RIPA buffer (50 mM Tris HCl pH=7.4, 150 mM NaCl, 1% Triton X-100, 0.5% Na-deoxycholate, 0.1% SDS) containing protease inhibitor cocktail (#11836170001, Roche), and phosphatase inhibitor (#11836170001, Roche) for 10 min at 4° C. After centrifugation at 15000 rpm for 10 min at 4° C., the supernatant was obtained, and protein concentration was quantified using BCA assay (#23225, Thermo Fisher). Equal amounts were mixed with 0.1 M DTT and LDS Sample Buffer (#84788, Thermo Fisher), heated for 5 min at 90° C. before loading onto 4-12% Bis-Tris gels. Proteins were transferred to nitrocellulose membranes. Membranes were blocked in 5% non-fat dry milk in TBS with 0.05% Tween (TBS-T) for 1 h at RT, washed in TBS-T, and probed with primary antibodies shaking overnight at 4° C. After washing in TBS-T, membranes were incubated with IRDye 800CW goat anti-rabbit or IRDye 680RD donkey anti-mouse IgG (H+L) (#926-32211 and #926-68072, respectively, LI-COR, 1:10,000 dilution) secondary antibody in Intercept blocking buffer (#927-60001, LI-COR) for 1 h at RT. After washing in TBS-T, membranes were imaged using the Odyssey CLx (LI-COR). Band intensities were quantified using Image Studio Lite software version 5.2.5 (LI-COR).

The test system of the next experiment is 4T1 breast cancer cells. The experiment is described as follows: Cytokine secretion assay, combination with cGAMP, 4T1 cells. The format is cell-based, mouse. The settings on record: 24 hours, 5 μM Compound 1 or 10 μM Compound 2, 10 mg/ml cGAMP. On the procedure: as §1, with “4T1” for “786-O”, “treated” for “grown in RPMI-1640 medium containing 10% fetal bovine serum. Cells were then incubated for 2 days at 37 degrees Celsius, 5% CO2, and 95% humidity. 786-O cells were incubated with 2 μM of compound 1”, “hours with DMSO or VPS34 inhibitors (5 μM Compound 1 or 10 μM Compound 2) in combination with 10 mg/ml STING agonist cGAMP (green bars).” for “hr.”
Cell culture medium was centrifuged at 1600 rpm for 10 min at 4° C. and obtained supernatant stored at −80° C. Cytokine levels were quantified using following Meso Scale Discovery (MSD) assays: mouse U-PLEX RANTES/CCL5 (#K152A2K) and U-PLEX IP-10/CXCL10 (#K152UFK). Assays were run on the SECTOR Quickplex Imager and analyzed using Discovery Workbench version 4.0 (MSD).

The test system of a further experiment is YUMM 1.7 melanoma cells. Briefly: qRT-PCR, combination with cGAMP, YUMM1.7 cells. The format is cell-based, Mouse. Conditions: 24 hours, 5 μM Compound 1 or 10 μM Compound 2, 10 mg/ml cGAMP. The procedure: as §1, with “YUMM1.7” for “786-O”, “treated” for “grown in RPMI-1640 medium containing 10% fetal bovine serum. Cells were then incubated for 2 days at 37 degrees Celsius, 5% CO2, and 95% humidity. 786-O cells were incubated with 2 μM of compound 1”, “hours with DMSO or VPS34 inhibitors (5 μM Compound 1 or 10 μM Compound 2) in combination with 10 mg/ml STING agonist cGAMP (green bars).” for “hr.”

Take `C[C@@H]1COCCN1c1cc(N2CCCC[C@@H]2C(F)(F)F)[nH]c(=O)c1` [Compound 1, 4-((R)-3-methylmorpholino)-6-((R)-2-(trifluoromethyl)piperidin-1-yl)pyridin-2(1H)-one]: the “increase in mRNA expression of IRF9” value in experiment [1] is listed as “approximately 2 fold”. In experiment [2], the CGAS level entry was “mild increase”, the STING level result is listed as “increase”, the p-IRF3 level result is listed as “strong increases” and the p-STAT1 level result is on record as “strong increases”. Besides, in experiment [2], the p-TKB1 level entry is “increase”; the “p-IRF3 and p-STAT1 levels with siRNA knockdown of CGAS” value is on record as “complete loss”; the “p-TKB1 level with siRNA knockdown of CGAS” value is on record as “decrease”; the “p-IRF3 and p-STAT1 levels with siRNA knockdown of STING” value is given as “complete loss”. Moreover, in experiment [2], the “p-TBK1 level with siRNA knockdown of STING” value was “decrease”, the “STING level with siRNA knockdown of TBK1” value is “increase” and the “CGAS level with siRNA knockdown of TBK1” value was “increase”. Moreover, in the experiment on 4T1 breast cancer cells, the CCL5 protein secretion result is “increased” and the CXCL10 protein secretion entry is given as “increased”. In addition, in the experiment with YUMM 1.7 melanoma cells, the “CCL5 mRNA expression” value was “increased” and the “CXCL10 mRNA expression” value is “did not increase”.
As for `C[C@@H]1COCCN1c1cc(=O)n2c(n1)N(Cc1cncc(Cl)c1)[C@H](C(F)(F)F)CC2` [Compound 2, (S)-9-((5-chloropyridin-3-yl)methyl)-2-((R)-3-methylmorpholino)-8-(trifluoromethyl)-6,7,8,9-tetrahydro-4H-pyrimido[1,2-a]pyrimidin-4-one], the “increase in mRNA expression of IRF9” value in experiment [1] is given as “approximately 2 fold”. Besides, in experiment [2], the CGAS level entry is on record as “mild increase”, the STING level entry was “increase”, the p-IRF3 level result is “strong increases” and the p-STAT1 level result is “strong increases”. In addition, in experiment [2], the p-TKB1 level entry was “increase”; the “p-IRF3 and p-STAT1 levels with siRNA knockdown of CGAS” value is listed as “complete loss”; the “p-TKB1 level with siRNA knockdown of CGAS” value was “decrease”; the “p-IRF3 and p-STAT1 levels with siRNA knockdown of STING” value is recorded as “complete loss”. In addition, in experiment [2], the “p-TBK1 level with siRNA knockdown of STING” value was “decrease”, the “STING level with siRNA knockdown of TBK1” value is given as “increase” and the “CGAS level with siRNA knockdown of TBK1” value is reported as “increase”. For the same molecule, in the experiment with 4T1 breast cancer cells, the CCL5 protein secretion result is on record as “increased” and the CXCL10 protein secretion entry is “increased”. Also, in the experiment on YUMM 1.7 melanoma cells, the “CCL5 mRNA expression” value is listed as “increased” and the “CXCL10 mRNA expression” value is “did not increase”.

The record behind these values is US20250127790A1, “COMBINATION THERAPY USING VPS34 INHIBITORS” (Deciphera Pharmaceuticals, LLC, priority 2021, published 2025).
